The values below are quoted from earlier work in patent US12569475B2, “Method for eradicating helicobacter pylori infection in patients regardless of body mass index” (RedHill Biopharma Ltd., priority 2020, dated 2026).

In brackets after ≈: the same amount, converted by molar mass. Structures can show the parent of a compound that is named as a salt. Where two headings read alike, the source gives them in different places.

For `COc1ccc2[nH]c([S+]([O-])Cc3ncc(C)c(OC)c3C)nc2c1` (racemic) [Omeprazole magnesium, 5-methoxy-2-[[(4-methoxy-3,5-dimethyl-2-pyridyl)methyl]sulfinyl]benzimidazole, (RS) magnesium salt (2:1)], the solubility in methanol entry is listed as “soluble”. Under “water at 25° C.”, the solubility in water is reported as 0.25 mg/mL.
Consider `CO[C@H]1/C=C/O[C@@]2(C)Oc3c(C)c(O)c4c(c3C2=O)C2=NC3(CCN(CC(C)C)CC3)NC2=C(NC(=O)/C(C)=C\C=C\[C@H](C)[C@H](O)[C@@H](C)[C@@H](O)[C@@H](C)[C@H](OC(C)=O)[C@@H]1C)C4=O` [Rifabutin, (9S,12E,14S,15R,16S,17R,18R,19R,20S,21S,22E,24Z)-6-16,18,20-tetrahydroxy-1′-isobutyl-14-methoxy-7,9,15,17,19,21,25-heptamethylspiro [9,4-(epoxypentadeca[1,11,13]trienimino)-2H-furo[2′,3′:7,8]naphth[1,2-d]imidazole-2,4′-piperidine]-5,10,26-(3H,9H)-trione-16-acetate], for which the solubility in methanol entry was “soluble”. The solubility in chloroform entry (chloroform) is given as “soluble”. For the same molecule, the solubility in ethanol entry (ethanol) was “sparingly soluble”. Also, the solubility in water (water) was 0.19 mg/mL (≈ 224 µM).
